Reference: patent US20220378814A1, “COMPOSITION OF PHYTONUTRIENTS FOR OBESITY PREVENTION” (ROSEMAN UNIVERSITY OF HEALTH SCIENCES, priority 2021, published 2022)
Values joined by “and” are separate entries in the source; they are usually repeats but may differ in a detail not shown here. Equal values may be shown once.

System: human primary preadipocytes
Test: Suppression of adipogenesis in cultures of human primary preadipocytes (EC50)
Type: cell-based

| EC50 | SMILES |
| --- | --- |
| 10 µM and 3.5 µg/mL | COc1ccc2cc3[n+](cc2c1OC)CCc1cc2c(cc1-3)OCO2 [Phytonutrient C1, Berberine] |
| 20 µM and 5.7 µg/mL | O=c1cc(-c2ccc(O)c(O)c2)oc2cc(O)cc(O)c12 [Phytonutrient C2, Luteolin] |
| 40 µM and 9.1 µg/mL | Oc1ccc(/C=C/c2cc(O)cc(O)c2)cc1 [Phytonutrient C3, Resveratrol] |
| 50 µM and 14.3 µg/mL | O=c1c(O)c(-c2ccc(O)c(O)c2)oc2cc(O)ccc12 [Phytonutrient C4, Fisetin] |
| 25 µM and 7.6 µg/mL | O=c1c(O)c(-c2ccc(O)c(O)c2)oc2cc(O)cc(O)c12 [Phytonutrient C5, Quercetin] |
| 20 µM and 9.2 µg/mL | O=C(OC1Cc2c(O)cc(O)cc2OC1c1cc(O)c(O)c(O)c1)c1cc(O)c(O)c(O)c1 (stereo not shown) [Phytonutrient C7, Epigallocatechin Gallate (EGCG)] |

| SMILES | EC50 |
| --- | --- |
| COc1cc(/C=C/C(=O)/C=C(O)/C=C/c2ccc(O)c(OC)c2)ccc1O [Phytonutrient C9, Curcumin] | 20 µM and 7.5 µg/mL |
